Measured values taken from patent US9000039B2, “Sn-1(3) monoacylglycerides and lipid absorption” (Nestec S.A., priority 2011, dated 2015).

Assay: lipid maldigestion or malabsorption animal model (Orlistat): EPA incorporation in red blood cell lipids
Format: in vivo, rats
Protocol: The inventors tested their concept in a lipid maldigestion/malabsorption animal model. The malabsorption condition was obtained using Orlistat®, a well known pancreatic and gastric lipases inhibitor. Animals were fed with long-chain polyunsaturated fatty acid (LC-PUFA) supplements containing mainly eicosapentaenoic (EPA) acid. Fish oil was used as a source of triacylglycerols and different EPA glycerides, for example those of FIG. 1, were evaluated. At different time intervals the fatty acid profile of red blood cell and plasma lipids was assessed. At the end of the experiment, fatty acid profiles of different tissues were determined. […] However, if LC-PUFA are provided as sn-1(3) MAGs the incorporation in tissue is not altered in conditions of lipid malabsorption/maldigestion.
Treatments: Control rats fed fish oil with or without Orlistat and rats fed with MAGs described in FIG. 1. Values are means±SEM (n=6).
The concept was tested in a lipid maldigestion or malabsorption animal model. The maldigestion or malabsorption condition was obtained using Orlistat, a well known pancreatic and gastric lipases inhibitor. Animals were fed during 21 days with long-chain polyunsaturated fatty acid (LC-PUFAs) supplements containing mainly eicosapentaenoic (EPA) acid. Fish oil was used as a source of triacylglycerols and the different EPA glycerides provided in FIG. 1 and purchased from Cognis GmbH, Germany, were evaluated. Orlistat was given at a level sufficient to decrease lipid absorption by 40%. A group receiving fish oil without Orlistat was used as a positive control. At different time intervals (D-3, D7, D14 and D21), fatty acid profile of red blood cell and plasma lipids were performed. At the end of the experiment, fatty acid profiles of different tissues were determined.
The main objective was to follow the level of EPA in red blood cell and plasma lipids. The main comparison evaluated was the difference in EPA level between groups receiving EPA containing MAGs (FIG. 1) in combination with Orlistat and the positive control group […].

SMILES	level of EPA incorporated in red blood cells, compared with the fish oil group (without Orlistat) (rats fed MAGs in combination with Orlistat, day 7, FIG. 2)	level of EPA incorporated in red blood cells, compared with the fish oil+Orlistat group (rats fed MAGs in combination with Orlistat, day 7, all P values lower than 0.05, FIG. 2)	fatty acid absorption compared with fish oil under normal conditions (under maldigestion/malabsorption conditions, FIG. 2)	effect on EPA incorporation in red blood cells (group receiving fish oil in combination or not with Orlistat, validates the model)
CC/C=C\C/C=C\C/C=C\C/C=C\C/C=C\CCCC(=O)OCC(O)CO (stereo not shown) [sn-1(3) monoeicosapentaenoylglycerol, sn-1(3)-monoeicosapentaenoylglycerol]	even higher than the fish oil group	statistically higher	better absorbed	–
CCCCCCCCCCC[C@@H](C[C@@H]1OC(=O)[C@H]1CCCCCC)OC(=O)[C@H](CC(C)C)NC=O [Orlistat, reference compound]	–	–	–	decrease EPA incorporation in red blood cells
